Molecules are shown by their SMILES. Like-named read-outs stand apart in the source and are kept apart here. Starred links: 1 amine or outer side, 2 acyl side, 3 side chain; linkers in the order of their positions; H or OH if unused. Residues, ends and D or L forms follow the SMILES beside them. Groups on a side chain read outwards from the residue. *: point of attachment. C18 diacid = O=C(O)CCCCCCCCCCCCCCCCC(=O)*; γGlu = O=C(O)[C@H](CCC(=O)[*:2])N[*:1]; AEEA = NCCOCCOCC(=O)O

The target of this experiment is T1, human CRHR2b (Homo sapiens, UniProt Q13324).
T1 construct: expressed in transfected cells; host or cells: Chinese Hamster Ovary (CHO) cells, transient transfection
T1 sequence (Q13324 1-438 isoform Q13324-2): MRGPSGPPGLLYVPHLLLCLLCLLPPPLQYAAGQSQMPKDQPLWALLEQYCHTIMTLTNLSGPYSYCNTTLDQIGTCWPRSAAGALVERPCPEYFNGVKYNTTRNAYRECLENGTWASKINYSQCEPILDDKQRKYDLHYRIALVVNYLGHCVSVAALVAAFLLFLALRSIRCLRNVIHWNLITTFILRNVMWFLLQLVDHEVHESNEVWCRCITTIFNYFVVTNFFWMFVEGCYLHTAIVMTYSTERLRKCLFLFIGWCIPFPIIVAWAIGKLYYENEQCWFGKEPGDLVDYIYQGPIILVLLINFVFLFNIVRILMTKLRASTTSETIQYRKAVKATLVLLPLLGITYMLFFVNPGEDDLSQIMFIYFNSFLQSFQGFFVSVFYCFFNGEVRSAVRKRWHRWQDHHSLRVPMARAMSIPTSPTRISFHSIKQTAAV
In words: human CRHR2b cell-based cAMP assay. In outline:
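ED50 values are means ± SEM over several runs, curve-fitted from cAMP in pmol, calibrated against unlabeled-cAMP standards. Detection was HTRF competition, ratio 665/620 nm, after 30 min agonist exposure at 37 °C.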

The mark [1] stands for this setting: cAMP assay, Table 26, compounds of Example 9, read-out: hCRHR2b Average EC50.

As a reminder, the EC50 is the midpoint of the concentration-response curve. Regarding `CC[C@H](C)[C@H](N)C(=O)N[C@H](C(=O)N[C@@H](CC(C)C)C(=O)N[C@@H](CO)C(=O)N[C@@H](CC(C)C)C(=O)N[C@@H](CC(=O)O)C(=O)N[C@H](C(=O)N1CCC[C@H]1C(=O)N[C@H](C(=O)NCC(=O)N[C@@H](CC(C)C)C(=O)N[C@@H](CC(C)C)C(=O)N[C@@H](CCC(N)=O)C(=O)N[C@H](C(=O)N[C@@H](CC(C)C)C(=O)N[C@@H](CC(C)C)C(=O)N[C@@H](CCC(=O)O)C(=O)N[C@@H](CCC(N)=O)C(=O)N[C@@H](CCC(=O)O)C(=O)N[C@@H](CCCCN)C(=O)N[C@@H](CCC(N)=O)C(=O)N[C@@H](CCC(=O)O)C(=O)N[C@@H](CCCCN)C(=O)N[C@@H](CCC(=O)O)C(=O)N[C@@H](CCCCN)C(=O)N[C@@H](CCC(N)=O)C(=O)N[C@@H](CCC(N)=O)C(=O)N[C@@H](C)C(=O)N[C@@H](CCCCNC(=O)COCCOCCNC(=O)COCCOCCNC(=O)CC[C@H](NC(=O)CC[C@H](NC(=O)CCCCCCCCCCCCCCCCC(=O)O)C(=O)O)C(=O)O)C(=O)N[C@H](C(=O)N[C@@H](CC(N)=O)C(=O)N[C@@H](C)C(=O)N[C@@H](CCC(N)=O)C(=O)N[C@H](C(=O)N[C@@H](CC(C)C)C(=O)N[C@@H](C)C(=O)N[C@@H](Cc1c[nH]cn1)C(=O)N[C@H](C(N)=O)C(C)C)[C@@H](C)CC)[C@@H](C)O)[C@@H](C)CC)[C@@H](C)CC)C(C)C)C(C)C` [Compound 48] (H-IVLSLDVPIGLLQILLEQEKQEKEKQQAK([AEEA-AEEA-γGlu-γGlu-C18 diacid])TNAQILAHV-NH2), under setting [1], the EC50 was determined as 3.61 nM.

For the compound `CC[C@H](C)[C@H](N)C(=O)N[C@H](C(=O)N[C@@H](CC(C)C)C(=O)N[C@@H](CO)C(=O)N[C@@H](CC(C)C)C(=O)N[C@@H](CC(=O)O)C(=O)N[C@H](C(=O)N1CCC[C@H]1C(=O)N[C@H](C(=O)N[C@@H](CCCCNC(=O)COCCOCCNC(=O)COCCOCCNC(=O)CC[C@H](NC(=O)CC[C@H](NC(=O)CCCCCCCCCCCCCCCCC(=O)O)C(=O)O)C(=O)O)C(=O)N[C@@H](CC(C)C)C(=O)N[C@@H](CC(C)C)C(=O)N[C@@H](CCC(N)=O)C(=O)N[C@H](C(=O)N[C@@H](CC(C)C)C(=O)N[C@@H](CC(C)C)C(=O)N[C@@H](CCC(=O)O)C(=O)N[C@@H](CCC(N)=O)C(=O)N[C@@H](CCC(=O)O)C(=O)N[C@@H](CCCCN)C(=O)N[C@@H](CCC(N)=O)C(=O)N[C@@H](CCC(=O)O)C(=O)N[C@@H](CCCCN)C(=O)N[C@@H](CCC(=O)O)C(=O)N[C@@H](CCCCN)C(=O)N[C@@H](CCC(N)=O)C(=O)N[C@@H](CCC(N)=O)C(=O)N[C@@H](C)C(=O)N[C@H](C(=O)N[C@H](C(=O)N[C@@H](CC(N)=O)C(=O)N[C@@H](C)C(=O)N[C@@H](CCC(N)=O)C(=O)N[C@H](C(=O)N[C@@H](CC(C)C)C(=O)N[C@@H](C)C(=O)N[C@@H](CCC(N)=O)C(=O)N[C@H](C(N)=O)C(C)C)[C@@H](C)CC)[C@@H](C)O)[C@@H](C)O)[C@@H](C)CC)[C@@H](C)CC)C(C)C)C(C)C` [Compound 49] (H-IVLSLDVPIK([AEEA-AEEA-γGlu-γGlu-C18 diacid])LLQILLEQEKQEKEKQQATTNAQILAQV-NH2), under setting [1], the EC50 came to 2.86 nM.

`CC[C@H](C)[C@H](N)C(=O)N[C@H](C(=O)N[C@@H](CC(C)C)C(=O)N[C@@H](CO)C(=O)N[C@@H](CC(C)C)C(=O)N[C@@H](CC(=O)O)C(=O)N[C@H](C(=O)N1CCC[C@H]1C(=O)N[C@H](C(=O)NCC(=O)N[C@@H](CC(C)C)C(=O)N[C@@H](CC(C)C)C(=O)N[C@@H](CCC(N)=O)C(=O)N[C@H](C(=O)N[C@@H](CC(C)C)C(=O)N[C@@H](CC(C)C)C(=O)N[C@@H](CCCCNC(=O)COCCOCCNC(=O)COCCOCCNC(=O)CC[C@H](NC(=O)CC[C@H](NC(=O)CCCCCCCCCCCCCCCCC(=O)O)C(=O)O)C(=O)O)C(=O)N[C@@H](CCC(N)=O)C(=O)N[C@@H](CCC(=O)O)C(=O)N[C@@H](CCCCN)C(=O)N[C@@H](CCC(N)=O)C(=O)N[C@@H](CCC(=O)O)C(=O)N[C@@H](CCCCN)C(=O)N[C@@H](CCC(=O)O)C(=O)N[C@@H](CCCCN)C(=O)N[C@@H](CCC(N)=O)C(=O)N[C@@H](CCC(N)=O)C(=O)N[C@@H](C)C(=O)N[C@H](C(=O)N[C@H](C(=O)N[C@@H](CC(N)=O)C(=O)N[C@@H](C)C(=O)N[C@@H](CCC(N)=O)C(=O)N[C@H](C(=O)N[C@@H](CC(C)C)C(=O)N[C@@H](C)C(=O)N[C@@H](CCC(N)=O)C(=O)N[C@H](C(N)=O)C(C)C)[C@@H](C)CC)[C@@H](C)O)[C@@H](C)O)[C@@H](C)CC)[C@@H](C)CC)C(C)C)C(C)C` [Compound 50] (H-IVLSLDVPIGLLQILLK([AEEA-AEEA-γGlu-γGlu-C18 diacid])QEKQEKEKQQATTNAQILAQV-NH2) came in with a half-maximal effective concentration (EC50) of 3.56 nM.

Consider `CC[C@H](C)[C@H](N)C(=O)N[C@H](C(=O)N[C@@H](CC(C)C)C(=O)N[C@@H](CO)C(=O)N[C@@H](CC(C)C)C(=O)N[C@@H](CC(=O)O)C(=O)N[C@H](C(=O)N1CCC[C@H]1C(=O)N[C@H](C(=O)NCC(=O)N[C@@H](CC(C)C)C(=O)N[C@@H](CC(C)C)C(=O)N[C@@H](CCC(N)=O)C(=O)N[C@H](C(=O)N[C@@H](CC(C)C)C(=O)N[C@@H](CC(C)C)C(=O)N[C@@H](CCC(=O)O)C(=O)N[C@@H](CCC(N)=O)C(=O)N[C@@H](CCC(=O)O)C(=O)N[C@@H](CCCCN)C(=O)N[C@@H](CCC(N)=O)C(=O)N[C@@H](CCC(=O)O)C(=O)N[C@@H](CCCCN)C(=O)N[C@@H](CCC(=O)O)C(=O)N[C@@H](CCCCN)C(=O)N[C@@H](CCCCNC(=O)COCCOCCNC(=O)COCCOCCNC(=O)CC[C@H](NC(=O)CC[C@H](NC(=O)CCCCCCCCCCCCCCCCC(=O)O)C(=O)O)C(=O)O)C(=O)N[C@@H](CCC(N)=O)C(=O)N[C@@H](C)C(=O)N[C@H](C(=O)N[C@H](C(=O)N[C@@H](CC(N)=O)C(=O)N[C@@H](C)C(=O)N[C@@H](CCC(N)=O)C(=O)N[C@H](C(=O)N[C@@H](CC(C)C)C(=O)N[C@@H](C)C(=O)N[C@@H](CCC(N)=O)C(=O)N[C@H](C(N)=O)C(C)C)[C@@H](C)CC)[C@@H](C)O)[C@@H](C)O)[C@@H](C)CC)[C@@H](C)CC)C(C)C)C(C)C` [Compound 51] (H-IVLSLDVPIGLLQILLEQEKQEKEKK([AEEA-AEEA-γGlu-γGlu-C18 diacid])QATTNAQILAQV-NH2), for which, under setting [1], the EC50 worked out at 2.42 nM.

`CC[C@H](C)[C@H](N)C(=O)N[C@H](C(=O)N[C@@H](CC(C)C)C(=O)N[C@@H](CO)C(=O)N[C@@H](CC(C)C)C(=O)N[C@@H](CC(=O)O)C(=O)N[C@H](C(=O)N1CCC[C@H]1C(=O)N[C@H](C(=O)NCC(=O)N[C@@H](CC(C)C)C(=O)N[C@@H](CC(C)C)C(=O)N[C@@H](CCC(N)=O)C(=O)N[C@H](C(=O)N[C@@H](CC(C)C)C(=O)N[C@@H](CC(C)C)C(=O)N[C@@H](CCC(=O)O)C(=O)N[C@@H](CCC(N)=O)C(=O)N[C@@H](CCC(=O)O)C(=O)N[C@@H](CCCCN)C(=O)N[C@@H](CCC(N)=O)C(=O)N[C@@H](CCC(=O)O)C(=O)N[C@@H](CCCCN)C(=O)N[C@@H](CCC(=O)O)C(=O)N[C@@H](CCCCN)C(=O)N[C@@H](CCC(N)=O)C(=O)N[C@@H](CCC(N)=O)C(=O)N[C@@H](C)C(=O)N[C@@H](CCCCNC(=O)COCCOCCNC(=O)COCCOCCNC(=O)CC[C@H](NC(=O)CC[C@H](NC(=O)CCCCCCCCCCCCCCCCC(=O)O)C(=O)O)C(=O)O)C(=O)N[C@H](C(=O)N[C@@H](CC(N)=O)C(=O)N[C@@H](C)C(=O)N[C@@H](CCC(N)=O)C(=O)N[C@H](C(=O)N[C@@H](CC(C)C)C(=O)N[C@@H](C)C(=O)N[C@@H](CCC(N)=O)C(=O)N[C@H](C(N)=O)C(C)C)[C@@H](C)CC)[C@@H](C)O)[C@@H](C)CC)[C@@H](C)CC)C(C)C)C(C)C` [Compound 52] (H-IVLSLDVPIGLLQILLEQEKQEKEKQQAK([AEEA-AEEA-γGlu-γGlu-C18 diacid])TNAQILAQV-NH2): under setting [1], the EC50 is 1.16 nM.

The values are drawn from patent US10894817B2, “Fatty acid modified urocortin-2 analogs for the treatment of diabetes and chronic kidney disease” (priority 2016, dated 2021).
